# Assay results reported in publication PMC4604124, “In Vitro Characterization of the Pharmacological Properties of the Anti-Cancer Chelator, Bp4eT, and Its Phase I Metabolites” (PLoS ONE, 2015).
# Values joined by “and” are separate entries in the source; they are usually repeats but may differ in a detail not shown here. Equal entries are not always repeated.
# Tests used:
# LC3-II = assay: Western blot and densitometry of LC3-I/II (autophagy); format: cell-based, human; details: for LC3-II levels compared to the control: agent alone; for densitometry WB, relative to NT = 1: single blot
# Description: Established protocols were used to prepare cell lysates and perform immunoblot analysis. Primary antibodies used include: rabbit LC3 (Cat. #: MBPM036; 1:2,000) from Abacus (Brisbane, Australia) and mouse β-actin (Cat. #: A1978, 1:10,000) from Sigma-Aldrich. The following secondary antibodies were utilized: horseradish peroxidase (HRP)-conjugated anti-rabbit (Cat. #: A6154, […]) and anti-mouse (Cat. #: A4416, 1:10,000) antibodies from Sigma-Aldrich. To ensure equal loading of proteins, membranes were probed for β-actin.
# [1] = Ascorbate oxidation assay (redox activity of iron complexes); format: biochemical; details: for %Fe 30min: ascorbate oxidation as % of the Fe control (Fe 100%): IBE 0.1, 30 min;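 on %Fe 30min (ascorbate oxidation, Fe 100%), průměr: IBE 3 means excess free chelator over iron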;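 on %Fe 30min (ascorbate oxidation, Fe 100%): IBE 3 means excess free chelator over iron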;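 on %Fe 30min: ascorbate oxidation as % of the Fe control (Fe 100%): IBE 0.1 means iron-binding equivalents with iron in excess over chelator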;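 on Change of absorbance, odečet 0 (time 0 subtracted), čas 10, průměr: IBE 3 means excess free chelator over 10 µM FeCl3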;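 on Change of absorbance, odečet 0 (time 0 subtracted), čas 10: IBE 3 means excess free chelator over 10 µM FeCl3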
# Experimental: The ascorbate oxidation assay was used to assess the redox activity of the iron complexes of the chelators using an established protocol. In brief, 100 μM ascorbic acid was prepared immediately prior to the experiment and incubated either alone or in the presence of 10 μM FeCl3 in a 50-fold molar excess (500 μM) of citrate and the chelators. Chelators were assayed at iron-binding equivalents (IBE) of 0.1 (excess of iron), 1 (fully coordinated iron—chelator complexes) and 3 (excess of free chelator). […] The decrease of absorbance between the two time points was calculated and expressed as a percentage of control without the chelator.
# [2] = 72 h/37°C, MCF-7, Bp4eT 10 and 100 nM, Dp44mT 100 nM, Baf A1 100 nM
# [3] = Supplementary Fig 2, Baf+ NT (Baf alone)
# [4] = Supplementary Fig 2, Baf+, 10nM
# [5] = Supplementary Fig 2, Baf+, 5uM (5M [sic] for Bp4eT)
# [6] = sheet IBE 1, time 10, replicates
# [7] = sheet IBE 1, time 20, replicates
# [8] = sheet IBE 1, time 30, replicates
compound,measurement,setting,value
"CO/C1=C\C(C)=C\[C@@H](C)[C@@H](O)[C@@H](C)C/C(C)=C/C=C/[C@H](OC)[C@@H]([C@@H](C)[C@@H](O)[C@H](C)[C@@]2(O)C[C@@H](O)[C@H](C)[C@@H](C(C)C)O2)OC1=O [Baf A1, Bafilomycin A1, reference compound]",LC3-II levels compared to the control,LC3-II; [2],marked and significant (p < 0.001) increase
CO/C1=C\C(C)=C\[C@@H](C)[C@@H](O)[C@@H](C)C/C(C)=C/C=C/[C@H](OC)[C@@H]([C@@H](C)[C@@H](O)[C@H](C)[C@@]2(O)C[C@@H](O)[C@H](C)[C@@H](C(C)C)O2)OC1=O [Baf],"densitometry WB, relative to NT = 1, Average","LC3-II; Fig 7E, Baf alone",452.435
same,"densitometry WB, relative to NT = 1","LC3-II; Fig 7E, Baf alone",493.767 and 401.641 and 461.896
same,"densitometry WB, relative to NT = 1, Average",LC3-II; [3],120.681
same,"densitometry WB, relative to NT = 1",LC3-II; [3],125.194 and 89.4619 and 147.387
"CN(C)C(=S)NN=C(c1ccccn1)c1ccccn1 [Dp44mT, di-2-pyridylketone 4,4-dimethyl-3-thiosemicarbazone, reference compound]",LC3-II with Baf A1 relative to Baf A1 and control,"LC3-II; 24 h/37°C, MCF-7, agent 5 μM, Baf A1 100 nM",significant (p < 0.05) increase
same,LC3II expression with Baf A1 relative to Baf A1 and control,"LC3-II; 24 h/37°C, MCF-7, agent 10 and 100 nM, Baf A1 100 nM",did not lead to a significant (p > 0.05) increase
same,"LC3-II levels upon co-incubation with Baf A1, compared to Baf A1 alone","LC3-II; 72 h/37°C, MCF-7, Baf A1 100 nM, Bp4eT 10 and 100 nM, Dp44mT 100 nM",significant (p < 0.001–0.05) suppression
same,"densitometry WB, relative to NT = 1, Average","LC3-II; Fig 7E, 100nM",4.573
same,"densitometry WB, relative to NT = 1, Average","LC3-II; Supplementary Fig 2, 10nM",1.013
same,"densitometry WB, relative to NT = 1, Average","LC3-II; Supplementary Fig 2, 100nM",0.7153
same,"densitometry WB, relative to NT = 1, Average","LC3-II; Supplementary Fig 2, 5uM (5M [sic] for Bp4eT)",2.9502
same,"densitometry WB, relative to NT = 1, Average",LC3-II; [4],97.312
same,"densitometry WB, relative to NT = 1",LC3-II; [4],76.4364 and 79.3437 and 136.156
same,"densitometry WB, relative to NT = 1, Average","LC3-II; Supplementary Fig 2, Baf+, 100nM",73.568
same,"densitometry WB, relative to NT = 1, Average",LC3-II; [5],249.127
same,"densitometry WB, relative to NT = 1",LC3-II; [5],275.571 and 204.438 and 267.371
same,LC3-II levels compared to the control,LC3-II; [2],"slight, but significant (p < 0.05) increase"
"O=C(O)CN(CCN(CC(=O)O)CC(=O)O)CC(=O)O [EDTA, reference compound]","Ascorbate oxidation, % of the control",[1]; IBE 0.1,161%
same,%Fe 30min: ascorbate oxidation as % of the Fe control (Fe 100%),[1]; mean (průměr),160.9%
same,%Fe 30min: ascorbate oxidation as % of the Fe control (Fe 100%),[1]; single wells,159.4% and 155.2% and 146.4% and 180.8% and 176.8% and 168.8%
same,Change of absorbance after subtraction of time 0 (odečet 0),"[1]; IBE 0.1, time 10, mean (průměr)",-0.05129
same,Change of absorbance after subtraction of time 0 (odečet 0),"[1]; IBE 0.1, time 20, mean (průměr)",-0.1014
same,Change of absorbance after subtraction of time 0 (odečet 0),"[1]; IBE 0.1, time 30, mean (průměr)",-0.1524
same,"Absorbance (ascorbate, λ = 265 nm)","[1]; IBE 0.1, čas 0 (time 0), mean (průměr)",0.8103
same,"Absorbance (ascorbate, λ = 265 nm)","[1]; IBE 0.1, čas 0 (time 0), single wells",0.8054 and 0.8016 and 0.8149 and 0.8186 and 0.808 and 0.8024
same,"Absorbance (ascorbate, λ = 265 nm)","[1]; IBE 0.1, čas 10 (time 10), mean (průměr)",0.759
same,"Absorbance (ascorbate, λ = 265 nm)","[1]; IBE 0.1, čas 10 (time 10), single wells",0.7602 and 0.7682 and 0.7617 and 0.7478 and 0.7502 and 0.7523
same,"Absorbance (ascorbate, λ = 265 nm)","[1]; IBE 0.1, čas 20 (time 20), mean (průměr)",0.7088
same,"Absorbance (ascorbate, λ = 265 nm)","[1]; IBE 0.1, čas 20 (time 20), single wells",0.708 and 0.7209 and 0.713 and 0.6947 and 0.6986 and 0.7025
same,"Absorbance (ascorbate, λ = 265 nm)","[1]; IBE 0.1, čas 30 (time 30), mean (průměr)",0.6579
same,"Absorbance (ascorbate, λ = 265 nm)","[1]; IBE 0.1, čas 30 (time 30), single wells",0.6595 and 0.6673 and 0.6654 and 0.6401 and 0.6465 and 0.65
same,"Ascorbate oxidation, % of the control",[1]; IBE 1,417%
same,"Ascorbate oxidation, % of the control",[1]; IBE 3,427%
same,"%Fe 30min (ascorbate oxidation, Fe = 100%), průměr (mean)","[1]; sheet IBE 1, 30min, Fe 100%, mean",416.7%
same,"%Fe 30min (ascorbate oxidation, Fe = 100%), single replicates","[1]; sheet IBE 1, 30min, Fe 100%, replicates",441% and 427.1% and 415.6% and 401.4% and 393.2% and 387.9%
same,"raw reading at čas 0 (time 0), průměr (mean)","[1]; sheet IBE 1, time 0, mean of 9 readings",0.6818
same,"raw reading at čas 0 (time 0), single replicates","[1]; sheet IBE 1, time 0, replicates of 2014-03-24 (two runs) and 2014-03-25",0.698 and 0.6881 and 0.6774 and 0.6781 and 0.6723 and 0.6948
same,"odečet 0 (reading minus time 0 reading) at čas 10, průměr (mean)","[1]; sheet IBE 1, time 10, mean",-0.1456
same,"raw reading at čas 10 (time 10), průměr (mean)","[1]; sheet IBE 1, time 10, mean of 9 readings",0.5362
same,"odečet 0 (reading minus time 0 reading) at čas 10, single replicates",[1]; [6],-0.1492 and -0.1466 and -0.1396 and -0.1522 and -0.1449 and -0.1427
same,"raw reading at čas 10 (time 10), single replicates",[1]; [6],0.5282 and 0.5314 and 0.5326 and 0.5426 and 0.5531 and 0.5454
same,"odečet 0 (reading minus time 0 reading) at čas 20, průměr (mean)","[1]; sheet IBE 1, time 20, mean",-0.2713
same,"raw reading at čas 20 (time 20), průměr (mean)","[1]; sheet IBE 1, time 20, mean of 9 readings",0.4105
same,"odečet 0 (reading minus time 0 reading) at čas 20, single replicates",[1]; [7],-0.2803 and -0.2685 and -0.2607 and -0.2802 and -0.2739 and -0.2684
same,"raw reading at čas 20 (time 20), single replicates",[1]; [7],0.3971 and 0.4095 and 0.4115 and 0.4146 and 0.424 and 0.4197
same,"odečet 0 (reading minus time 0 reading) at čas 30, průměr (mean)","[1]; sheet IBE 1, time 30, mean",-0.3705
same,"raw reading at čas 30 (time 30), průměr (mean)","[1]; sheet IBE 1, time 30, mean of 9 readings",0.3114
same,"odečet 0 (reading minus time 0 reading) at čas 30, single replicates",[1]; [8],-0.381 and -0.369 and -0.359 and -0.3788 and -0.3711 and -0.366
same,"raw reading at čas 30 (time 30), single replicates",[1]; [8],0.2963 and 0.3091 and 0.3132 and 0.316 and 0.3269 and 0.322
same,"%Fe 30min (ascorbate oxidation, Fe 100%), průměr","[1]; sheet IBE 3, 30min, Fe alone = 100%, mean (průměr) of the 9 replicates",426.7%
same,"%Fe 30min (ascorbate oxidation, Fe 100%)","[1]; sheet IBE 3, 30min, Fe alone = 100%, single replicates",442% and 427.3% and 421.9% and 434.5% and 414.3% and 409.1%
same,"Change of absorbance, odečet 0 (time 0 subtracted), čas 10, průměr","[1]; sheet IBE 3, time 10 minus time 0, mean (průměr)",-0.1585
same,"Change of absorbance, odečet 0 (time 0 subtracted), čas 10","[1]; sheet IBE 3, time 10 minus time 0, single replicates",-0.1642 and -0.1578 and -0.1558 and -0.1617 and -0.1557 and -0.1533
same,"Change of absorbance, odečet 0 (time 0 subtracted), čas 20, průměr","[1]; sheet IBE 3, time 20 minus time 0, mean (průměr)",-0.2896
same,"Change of absorbance, odečet 0 (time 0 subtracted), čas 20","[1]; sheet IBE 3, time 20 minus time 0, single replicates",-0.3027 and -0.2894 and -0.2865 and -0.2919 and -0.2818 and -0.2751
same,"Change of absorbance, odečet 0 (time 0 subtracted), čas 30, průměr","[1]; sheet IBE 3, time 30 minus time 0, mean (průměr)",-0.3943
same,"Change of absorbance, odečet 0 (time 0 subtracted), čas 30","[1]; sheet IBE 3, time 30 minus time 0, single replicates",-0.4103 and -0.3966 and -0.3916 and -0.3977 and -0.3792 and -0.3744
